According to patent US12590062B2, “PD-1/PD-L1 inhibitors” (Gilead Sciences, Inc., priority 2017, dated 2026):

What was measured:
[1] = target: T1, PD-1/PD-L1 interaction (Homo sapiens, UniProt Q9NZQ7); assay: PD-1/PD-L1 NFAT reporter co-culture assay; type: cell-based; details: Jurkat PD-1 NFAT-luciferase cells co-cultured with aAPC-PD-L1 CHO cells, 6 hrs at 37° C.; read-out: EC50 NFAT Luciferase
T1 construct: expressed in transfected cells; host or cells: CHO cells (aAPC-PD-L1) co-cultured with Jurkat cells overexpressing PD-1 and an NFAT-luciferase reporter
Method in brief: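 Jurkat cells overexpressing PD-1 with NFAT-luciferase mixed with compounds and plated onto CHO aAPCs expressing anti-CD3 and PD-L1, RPMI with 2% FBS. Co-culture 6 h at 37 °C; luminescence read with ONE-Glo. EC50 from four-parameter fit.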

[2] = target: PD-1/PD-L1 (Homo sapiens, UniProt Q9NZQ7); assay: PD-1/PD-L1 biochemical protein-protein interaction assay (ALPHA); type: binding; details: 0.3 nM His tagged PD-L1, 2.5 nM biotinylated Fc-PD-1, 60 minutes at 25° C., read-out: IC50 PD-L1-PD-1 Alpha IC50-mono PD-L1-fcP-D1
Description: Biological Activity PD-1/PD-L1 & CTLA/CD80 Biochemical Protein-Protein Interaction Assay
Compounds were tested in biochemical protein-protein interaction assays to determine if they can specifically block the interaction between the extracellular domains of PD-1/PD-L1 or CTLA/CD80. Binding of the protein pairs is measured using a bead based Amplified Luminescent Proximity Homogeneous Assay (ALPHA) platform. Binding of each protein pair results in proximity of the donor and acceptor beads which leads to an increase in ALPHA signal. Disruption of the protein-protein interaction with a test compound results in a decrease in ALPHA signal. Assays are performed in 25 mM Hepes (pH 7.4), 150 mM NaCl, 3.4 mM EDTA, 0.005% Tween 20, and 0.01% BSA. Final protein concentration in the assays were 0.3 nM (His tagged PD-L1), 2.5 nM (biotinylated Fc-PD-1), 1 nM (His tagged CTLA4) and 1 nM (biotinylated CD80). After an assay reaction time of 60 minutes at 25° C., binding was measured with addition of 20 μg/mL ALPHA assay acceptor beads (anti-His coated) and […] ALPHA assay donor beads (streptavidin coated). IC50 values were calculated from the fit of the dose-response curves to a four-parameter equation. Representative data are shown below in Table 1.

PD-1/PD-L1, sequence (Q9NZQ7 19-238 limits assumed): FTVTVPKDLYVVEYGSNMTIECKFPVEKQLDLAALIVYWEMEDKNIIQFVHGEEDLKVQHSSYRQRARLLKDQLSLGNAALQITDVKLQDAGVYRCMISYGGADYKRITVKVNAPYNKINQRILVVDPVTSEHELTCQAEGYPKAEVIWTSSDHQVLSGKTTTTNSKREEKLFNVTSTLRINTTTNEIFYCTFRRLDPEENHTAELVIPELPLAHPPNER
T1 sequence (Q9NZQ7 19-290): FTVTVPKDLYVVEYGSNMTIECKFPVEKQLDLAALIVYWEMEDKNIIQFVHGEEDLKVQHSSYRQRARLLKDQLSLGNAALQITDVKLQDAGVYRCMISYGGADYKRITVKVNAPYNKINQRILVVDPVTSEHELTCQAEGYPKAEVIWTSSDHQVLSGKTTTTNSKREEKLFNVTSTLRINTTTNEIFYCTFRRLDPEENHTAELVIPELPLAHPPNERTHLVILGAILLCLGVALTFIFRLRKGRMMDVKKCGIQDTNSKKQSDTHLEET

Row | Structure (SMILES) | EC50 [1] | IC50 [2]
1 | COc1nc(O[C@H]2CCc3c(-c4cccc5c4CC[C@@H]5Oc4nc(OC)c(CNC[C@H](O)CC(=O)O)cc4Br)cccc32)c(Br)cc1CNC[C@H](O)CC(=O)O [Example 3, (3R,3′R)-4,4′-((((((1S,1′S)-2,2′,3,3′-tetrahydro-1H,1′H-[4,4′-biindene]-1,1′-diyl)bis(oxy))bis(5-bromo-2-methoxypyridine-6,3-diyl))bis(methylene))bis(azanediyl))bis(3-hydroxybutanoic acid)] | 48 nM | 0.2 nM
2 | COc1nc(OCc2cccc(-c3cccc(COc4ccc(CN[C@H](CO)C(=O)O)c(OC)n4)c3C)c2C)ccc1CN[C@H](CO)C(=O)O [Example 14] | 13100 nM | 2.1 nM
3 | Cc1c(COc2cc(OCc3cncc(C#N)c3)c(CN3CCCCC3)cc2Cl)cccc1-c1cccc(COc2cc(OCc3cncc(C#N)c3)c(CN3CCCCC3)cc2Cl)c1C [Example 15, 5,5′-((((((2,2′-dimethyl-[1,1′-biphenyl]-3,3′-diyl)bis(methylene))bis(oxy))bis(4-chloro-6-(piperidin-1-ylmethyl)-3,1-phenylene))bis(oxy))bis(methylene))dinicotinonitrile] | 5710 nM | 1250 nM
4 | COc1nc(OCc2cccc(-c3cccc(COc4ccc(CNCCNC(C)=O)c(OC)n4)c3C)c2C)ccc1CNCCNC(C)=O [Example 18, N,N′-(((((((2,2′-dimethyl-[1,1′-biphenyl]-3,3′-diyl)bis(methylene))bis(oxy))bis(2-methoxypyridine-6,3-diyl))bis(methylene))bis(azanediyl))bis(ethane-2,1-diyl))diacetamide] | ≥ 50000 nM | 16.2 nM
5 | Cc1c(COc2cc(OCc3cccnc3)c(CNCCO)cc2Cl)cccc1-c1cccc(COc2cc(OCc3cccnc3)c(CNCCO)cc2Cl)c1C [Example 22, 2,2′-((((((2,2′-dimethyl-[1,1′-biphenyl]-3,3′-diyl)bis(methylene))bis(oxy))bis(5-chloro-2-(pyridin-3-ylmethoxy)-4,1-phenylene))bis(methylene))bis(azanediyl))bis(ethan-1-ol)] | 2070 nM | 34.9 nM
6 | COc1nc(OCc2cccc(-c3cccc(COc4ccc(CNC[C@@H](C)O)c(OC)n4)c3C)c2C)ccc1CNC[C@@H](C)O [Example 24, (2R,2′R)-1,1′-((((((2,2′-dimethyl-[1,1′-biphenyl]-3,3′-diyl)bis(methylene))bis(oxy))bis(2-methoxypyridine-6,3-diyl))bis(methylene))bis(azanediyl))bis(propan-2-ol)] | 1890 nM | 41.7 nM
7 | N#Cc1cncc(COc2cc(OCc3cccc(-c4cccc(COc5cc(OCc6cncc(C#N)c6)c(CNCCO)cc5Cl)c4)c3)c(Cl)cc2CNCCO)c1 [Example 25, 5,5′-((((([1,1′-biphenyl]-3,3′-diylbis(methylene))bis(oxy))bis(4-chloro-6-(((2-hydroxyethyl)amino)methyl)-3,1-phenylene))bis(oxy))bis(methylene))dinicotinonitrile] | 3760 nM | 20.9 nM
8 | Cc1c(COc2cc(OCCN3CCOCC3)c(CNCCO)cc2Cl)cccc1-c1cccc(COc2cc(OCCN3CCOCC3)c(CNCCO)cc2Cl)c1C [Example 28, 2,2′-((((((2,2′-dimethyl-[1,1′-biphenyl]-3,3′-diyl)bis(methylene))bis(oxy))bis(5-chloro-2-(2-morpholinoethoxy)-4,1-phenylene))bis(methylene))bis(azanediyl))bis(ethan-1-ol)] | 663 nM | 12.7 nM

The remaining molecules from weak to strong by IC50 [2], led by results:

Row | EC50 [1] | IC50 [2] | Structure (SMILES)
9 | ≥ 50000 nM | 40.6 nM | COc1nc(OCc2cccc(-c3cccc(COc4ccc(CNC[C@H](C)O)c(OC)n4)c3C)c2C)ccc1CNC[C@H](C)O [Example 23, (2S,2′S)-1,1′-((((((2,2′-dimethyl-[1,1′-biphenyl]-3,3′-diyl)bis(methylene))bis(oxy))bis(2-methoxypyridine-6,3-diyl))bis(methylene))bis(azanediyl))bis(propan-2-ol)]
10 | 1370 nM | 17 nM | COc1nc(OCc2cccc(-c3cccc(COc4ccc(CNCCO)c(OC)n4)c3C)c2C)ccc1CNCCO [Example 21, 2,2′-((((((2,2′-dimethyl-[1,1′-biphenyl]-3,3′-diyl)bis(methylene))bis(oxy))bis(2-methoxypyridine-6,3-diyl))bis(methylene))bis(azanediyl))bis(ethan-1-ol)]
11 | 18900 nM | 16.2 nM | COc1nc(OCc2cccc(-c3cccc(COc4ccc(CN5C[C@@H](O)CC5=O)c(OC)n4)c3C)c2C)ccc1CNC[C@@H](O)CC(=O)O [Example 26, (S)-3-hydroxy-4-(((6-((3′-(((5-(((S)-4-hydroxy-2-oxopyrrolidin-1-yl)methyl)-6-methoxypyridin-2-yl)oxy)methyl)-2,2′-dimethyl-[1,1′-biphenyl]-3-y)methoxy)-2-methoxypyridin-3-yl)methyl)amino)butanoic acid]
12 | 653 nM | 11.1 nM | CCNCc1cc(Cl)c(OCc2cccc(-c3cccc(COc4cc(OCc5cncc(C#N)c5)c(CNCC)cc4Cl)c3C)c2C)cc1OCc1cncc(C#N)c1 [Example 12, 5,5′-((((((2,2′-dimethyl-[1,1′-biphenyl]-3,3′-diyl)bis(methylene))bis(oxy))bis(4-chloro-6-((ethylamino)methyl)-3,1-phenylene))bis(oxy))bis(methylene))dinicotinonitrile]
13 | 25300 nM | 2.3 nM | COc1cc(OCc2cccc(-c3cccc(COc4ccc(CNC[C@@H](O)CC(=O)O)c(OC)n4)c3C)c2C)ccc1CNC[C@@H](O)CC(=O)O [Example 27, (S)-4-(((6-((3′-((4-((((S)-3-carboxy-2-hydroxypropyl)amino)methyl)-3-methoxyphenoxy)methyl)-2,2′-dimethyl-[1,1′-biphenyl]-3-yl)methoxy)-2-methoxypyridin-3-yl)methyl)amino)-3-hydroxybutanoic acid]
14 | 5140 nM | 1.1 nM | COc1nc(OCc2cccc(-c3cccc(COc4ccc(CNC[C@@H](O)CC(=O)O)c(OC)n4)c3C)c2C)ccc1CNC[C@@H](O)CC(=O)O [Example 19, (3S,3′S)-4,4′-((((((2,2′-dimethyl-[1,1′-biphenyl]-3,3′-diyl)bis(methylene))bis(oxy))bis(2-methoxypyridine-6,3-diyl))bis(methylene))bis(azanediyl))bis(3-hydroxybutanoic acid)]
15 |  | 0.317 nM | N#Cc1cncc(COc2nc(OCc3cccc(-c4cccc(COc5nc(OCc6cncc(C#N)c6)c(CNC[C@@H](O)CC(=O)O)cc5Br)c4Cl)c3Cl)c(Br)cc2CNC[C@@H](O)CC(=O)O)c1 [Example 563]
16 | 1610 nM | 0.3 nM | Cc1c(COc2ccc(CNC[C@@H](O)CC(=O)O)cc2)cccc1-c1cccc(COc2cc(OCc3cncc(C#N)c3)c(CNC[C@@H](O)CC(=O)O)cc2Cl)c1C [Example 17, (S)-4-((4-((3′-((4-((((S)-3-carboxy-2-hydroxypropyl)amino)methyl)-2-chloro-5-((5-cyanopyridin-3-yl)methoxy)phenoxy)methyl)-2,2′-dimethyl-[1,1′-biphenyl]-3-yl)methoxy)benzyl)amino)-3-hydroxybutanoic acid]
